The values that follow come from patent publication US20120070445A1, “BRAIN-DERIVED GONADOTROPINS AND COGNITION” (priority 2006, published 2012).

For data set [1], the system named is Tg2576 mice. Description: Y-maze performance in aged Tg2576 mice. Type of data set: in vivo. Conditions: 21 month old Tg2576 female mice, 3 months treatment vs placebo/saline, p<0.01.
The test system of data set [2] is Aβ. Description: Hippocampal Aβ burden (% area stained) in Tg2576 mice. Conditions: vs saline-treated, p<0.05. It is filed as in vivo. The text has this: Scale bar, 200 μm. […] In this initial study we used aged animals to 1) circumvent the estrogen issue, since aged mice, like humans show estropause and 2) to examine the effects of LH ablation once the disease is well established.

The test system of another data set is LH. In words: Serum LH and pituitary LHβ mRNA after leuprolide acetate. It is filed as in vivo, Tg2576 mice.
The subject of data set [3] is C57/B6 female mice. In words: Y-maze in ovariectomized mice with or without estrogen replacement. Type of data set: in vivo. Conditions: OVX mice.
Data set [4] has as its system C57/B6 female mice. In words: Morris Water Maze in ovariectomized mice (training and probe trial). The following applies: for length of time taken to locate the invisible platform across days (rescue of OVX-associated cognitive decline): OVX mice, three training days. It is filed as in vivo. As to the method: (Significance indicated by: *=P+S vs E+S; #=P+S vs P+L; $=P+S vs SHAM; %=P+S vs E+L; at p<0.05).
Additionally, to further determine the memory function and training success in the animals we measured the capacity of the animals to retain the information learned using a probe trial. In this regard, at the end of the last day of training we removed the platform and let the animals swim for 1 minute.

Data set [5] has as its system Tg2576 mice. Conditions: APP transgenic mice, recent study; cited from earlier work.
Data set [6] concerns Aβ. Conditions: APP transgenic mice, recent study; cited from earlier work.
Another data set concerns AD patients. The following applies: high doses, completed phase II trial; cited from earlier work.
A short description of data set [7]: Body weight 3 months post-surgery + replacement + drug treatment.
Text: In addition we added a SHAM ovariectomized group that received saline and a placebo pallet (n=10). During the last two weeks of the study all animals have been tested for Y-maze and Morris Water Maze performance.

On to `CCNC(=O)[C@@H]1CCCN1C(=O)[C@H](CCCNC(=N)N)NC(=O)[C@H](CC(C)C)NC(=O)[C@@H](CC(C)C)NC(=O)[C@H](Cc1ccc(O)cc1)NC(=O)[C@H](CO)NC(=O)[C@H](Cc1c[nH]c2ccccc12)NC(=O)[C@H](Cc1c[nH]cn1)NC(=O)[C@@H]1CCC(=O)N1` [leuprolide acetate], for which, in the data set with Tg2576 mice [1], the “cognitive decline (Y-maze % alternations, change from baseline)” value is “significantly attenuates cognitive decline”. For the same compound, in the data set with Aβ [2], the “Aβ burden, % area stained in the entire hippocampus” value is “significantly lower”. Moreover, in the data set on LH (Tg2576 mice, vs saline, P<0.02), the “serum LH” value is “significant decline in serum LH”. The “LHβ mRNA expression in the pituitary” value in the data set with LH (mice, 6 and 8 week treatment vs saline) is on record as “clear decrease in the expression of LHβ mRNA”. The Y-maze performance entry in the data set with C57/B6 female mice [3] (leuprolide acetate 7.5 mg/kg for 3 months vs saline, specific to placebo replaced group (p=0.005)) is recorded as “significantly improved Y-maze performance”; with Tg2576 mice [5], “improves Y-maze performance”. Besides, the “length of time taken to locate the invisible platform across days (rescue of OVX-associated cognitive decline)” value with C57/B6 female mice [4] was “as effective as estrogen in rescuing OVX-associated cognition decline”. Further, the “learning rate in Morris Water Maze” value in the data set on C57/B6 female mice [4] (independent of replacement regimen, vs saline, p=0.027) is reported as “learned at a faster rate”. The “latency to enter NE quadrant, probe trial” value in the data set on C57/B6 female mice [4] (regardless of replacement regimen, 0.041) was “entered that quadrant earlier”. Further, in the data set on C57/B6 female mice [4] (regardless of replacement regimen, p=0.003), the “distance swam in NE quadrant, probe trial” value was “swam longer distances”. For the same compound, in the data set with C57/B6 female mice [4] (regardless of replacement regimen, p=0.004), the “number of platform crossings, probe trial” value is “crossed it more times”. Further, the “latency to enter platform location, probe trial” value in the data set with C57/B6 female mice [4] (regardless of replacement regimen, p=0.005) is given as “crossed the invisible platform region more earlier”. Further, in the data set on Aβ [6], the “amyloid-β load in the hippocampus” value was “decreases amyloid-β load”. Besides, the “cognitive impairment and activities of daily living” value in the data set with AD patients was “stabilization in cognitive impairment and activities of daily living”.

In the case of Estrogen, the “Y-maze performance, estrogen-replaced vs placebo replaced” value with C57/B6 female mice [3] (saline-treated, t=1.841, p=0.07) was “strong trend”. In addition, the “length of time taken to locate the invisible platform across days (rescue of OVX-associated cognitive decline)” value with C57/B6 female mice [4] is reported as “rescued by estrogen replacement”. Besides, the Body weight in data set [7] (OVX + Estrogen, Saline, 3 months post-surgery) amounted to 23.5. Further, the “body weight of OVX+estrogen replaced group compared with SHAM” value in [7] (irrespective of drug treatment) was “not different from the SHAM operated group”.
